Test results reported in ChEMBL document CHEMBL1129161, “Studies on the active metabolite (DU-86) of KW-2189, a novel derivative of duocarmycin” (Bioorg Med Chem Lett, 1996).

Tests used:
HeLa [1] = test: Concentration required to inhibit the growth of HeLa S3 cells after 1 hour.; format: functional, cell-based; details: Homo sapiens
HeLa [2] = test: Concentration required to inhibit the growth of HeLa S3 cells after 72 hours.; format: functional, cell-based; details: Homo sapiens
Sarcoma-180 [3] = test: Antitumor activity expressed as T/C at an intravenous dose of 1.0 mg/kg in mice implanted subcutaneously with murine sarcoma 180 cells.; format: functional, Mus musculus
Sarcoma-180 [4] = test: Antitumor activity expressed as T/C at an intravenous dose of 8.0 mg/kg in mice implanted subcutaneously with murine sarcoma 180 cells.; format: functional, Mus musculus
Sarcoma-180 [5] = test: Antitumor activity expressed as T/C at an intravenous dose of 0.13 mg/kg in mice implanted subcutaneously with murine sarcoma 180 cells.; format: functional, Mus musculus

IC50 (HeLa [1]) [nM]	IC50 (HeLa [2]) [nM]	SMILES	T/C (Sarcoma-180 [3])	T/C (Sarcoma-180 [4])	T/C (Sarcoma-180 [5])
36	6.6	COC(=O)c1c(C)[nH]c2c1[C@@]13C[C@@H]1Cn1c(O)c4nc5c(OC)c(OC)c(OC)cc5c-4c(c13)C2=O			
1.4	0.069	COC(=O)c1c2c(n(C)c1C)C(=O)C=C1N(C(=O)c3cc4cc(OC)c(OC)c(OC)c4[nH]3)C[C@H]3C[C@]123	0.22		
890	230	COC(=O)c1c2c(n(C)c1C)C(=O)C=C1N(C(=O)c3cc4cc(OC)c(OC)c(OC)c4n3C)C[C@H]3C[C@]123		0.96	
		COC(=O)c1c(C)[nH]c2c1[C@@]13C[C@@H]1CN(C(=O)c1cc4cc(OC)c(OC)c(OC)c4[nH]1)C3=CC2=O			0.18
